Reference: ChEMBL document CHEMBL1157013, “Novel phospholipid analogues of pan-PPAR activator tetradecylthioacetic acid are more PPAR alpha selective” (Bioorg Med Chem Lett, 2010)
Calls of active or inactive are those of the source.

How the values were obtained:
Format in all cases: cell-based
[1] = target: T1, Peroxisome proliferator-activated receptor alpha (Homo sapiens) (UniProt Q07869); assay: Activation of PPARalpha expressed in human MCF7 cells at 10 uM by luciferase reporter gene assay
T1 sequence (whole entry): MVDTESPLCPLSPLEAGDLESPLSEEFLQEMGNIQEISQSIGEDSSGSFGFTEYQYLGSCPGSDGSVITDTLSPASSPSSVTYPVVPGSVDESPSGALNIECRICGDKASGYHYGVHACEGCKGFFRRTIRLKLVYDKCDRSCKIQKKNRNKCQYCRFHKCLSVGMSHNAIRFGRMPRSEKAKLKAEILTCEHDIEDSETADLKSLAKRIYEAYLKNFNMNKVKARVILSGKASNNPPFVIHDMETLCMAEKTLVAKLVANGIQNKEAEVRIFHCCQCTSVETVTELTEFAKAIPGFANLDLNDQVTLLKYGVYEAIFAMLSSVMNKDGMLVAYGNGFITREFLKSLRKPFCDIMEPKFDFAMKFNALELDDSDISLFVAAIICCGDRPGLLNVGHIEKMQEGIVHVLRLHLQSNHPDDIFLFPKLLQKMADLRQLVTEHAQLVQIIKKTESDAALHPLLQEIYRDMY

[2] = target: T1, Peroxisome proliferator-activated receptor alpha (Homo sapiens); assay: Activation of PPARalpha expressed in human MCF7 cells at 30 uM by luciferase reporter gene assay
[3] = target: T2, Peroxisome proliferator-activated receptor delta (Homo sapiens) (UniProt Q03181); assay: Activation of PPARdelta expressed in human MCF7 cells at 10 uM by luciferase reporter gene assay
T2 sequence (whole entry): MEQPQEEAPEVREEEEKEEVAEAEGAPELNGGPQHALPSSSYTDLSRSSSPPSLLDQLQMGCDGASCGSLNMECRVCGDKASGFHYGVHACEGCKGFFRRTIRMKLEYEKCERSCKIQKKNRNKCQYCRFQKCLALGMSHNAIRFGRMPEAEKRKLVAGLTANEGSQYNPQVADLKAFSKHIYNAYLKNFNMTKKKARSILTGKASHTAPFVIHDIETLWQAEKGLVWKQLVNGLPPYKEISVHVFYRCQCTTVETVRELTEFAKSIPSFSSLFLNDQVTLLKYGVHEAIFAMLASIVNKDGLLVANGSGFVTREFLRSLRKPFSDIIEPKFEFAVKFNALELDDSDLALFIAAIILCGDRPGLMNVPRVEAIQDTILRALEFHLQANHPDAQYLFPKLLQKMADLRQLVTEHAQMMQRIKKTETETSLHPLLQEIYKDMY

[4] = target: T2, Peroxisome proliferator-activated receptor delta (Homo sapiens); assay: Activation of PPARdelta expressed in human MCF7 cells at 30 uM by luciferase reporter gene assay
[5] = target: T3, Peroxisome proliferator-activated receptor gamma (Homo sapiens) (UniProt P37231); assay: Activation of PPARgamma expressed in human MCF7 cells at 10 uM by luciferase reporter gene assay
T3 sequence (whole entry): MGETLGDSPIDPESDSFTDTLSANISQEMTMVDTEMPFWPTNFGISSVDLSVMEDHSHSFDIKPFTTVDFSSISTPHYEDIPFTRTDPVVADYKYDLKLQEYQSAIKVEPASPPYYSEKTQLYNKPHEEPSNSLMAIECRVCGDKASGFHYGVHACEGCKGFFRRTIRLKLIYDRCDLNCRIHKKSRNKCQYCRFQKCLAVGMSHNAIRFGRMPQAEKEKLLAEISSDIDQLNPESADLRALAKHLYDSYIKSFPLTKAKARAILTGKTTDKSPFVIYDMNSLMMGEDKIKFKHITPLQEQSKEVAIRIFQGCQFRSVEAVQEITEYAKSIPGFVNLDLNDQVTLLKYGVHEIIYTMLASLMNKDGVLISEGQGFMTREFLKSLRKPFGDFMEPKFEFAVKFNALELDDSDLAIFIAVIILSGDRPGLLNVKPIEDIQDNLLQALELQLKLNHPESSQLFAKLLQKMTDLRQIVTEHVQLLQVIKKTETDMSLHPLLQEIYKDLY

[6] = target: T3, Peroxisome proliferator-activated receptor gamma (Homo sapiens); assay: Activation of PPARgamma expressed in human MCF7 cells at 30 uM by luciferase reporter gene assay

Measured: Activity

CCCCCCCCCCCCCCSCC(=O)OC[C@@H](O)COP(=O)([O-])OCC[N+](C)(C)C
active: all assays above

CCCCCCCCCCCCCCSCC(=O)O
active: [2] | [4] | [6]

CCCCCCCCCCCCCCSCC(=O)OC[C@H](COP(=O)(O)OCC(O)CO)OC(=O)CSCCCCCCCCCCCCCC (stereo not given in full)
active: all assays above
